Patent US9597407B2, “Targeted antimicrobial moieties” (C3 Jian, Inc., priority 2009, dated 2017)
Entries after “also recorded” stand apart in the source; their conditions may differ.

How the values were obtained:
microorganisms = assay: Morphology, biofilm and growth disruption by peptides (Table 5); type: cell-based; parameters: key: A: Peptide aggregates; B: Less hyphal formation; Clumps; Diffuse clumps and small polyps; F: Diffuse growth; H: Thin; I: Growth inhibition; Microcolony formation; Rippled; Small polyps; Thick; W: Halo formation on top, microlonies on bottom
Description: In certain embodiments peptides that induce alterations in phenotype or other biological activities can also be used as antimicrobial effector moieties.

bacteria = assay: Binding of targeting peptides to microorganisms (Table 3); details: preferably 1x PBS; for Target(s) (microorganism bound by the targeting peptide) / Target(s) (microorganisms bound by the targeting peptide): peptide binding in aqueous buffers that varied depending on peptide solubility; for Target(s): microorganism bound by the targeting peptide, binding in aqueous buffers chosen by peptide solubility

Substance | Organism, effect (morphology, biofilm and growth disruption) (microorganisms; E. faecalis) | Organism, effect (morphology, biofilm and growth disruption) (microorganisms; MRSA) | Organism, effect (morphology, biofilm and growth disruption) (microorganisms; S. epidermidis) | Organism, effect (morphology, biofilm and growth disruption) (microorganisms; S. pneumoniae) | Target(s) (microorganism bound by the targeting peptide) (bacteria) | also measured
PF-629 (chain 1 GLAAIATVFALY; chain 2 GLAAIATVFALY; Peptide with targeting and/or antimicrobial activity) | E. faecalis (R) | MRSA (D) | S. epidermidis (C) | S. pneumoniae (M) | S. epidermidis and P. aeruginosa and C. albicans and MRSA and S. pneumoniae and E. faecalis and C. jeikeium | Organism, effect (morphology, biofilm and growth disruption) (microorganisms; C. jeikeium): C. jeikeium (R)
PF-C142 (DFPPLSFFRRRFHAYTAPIDNFFGANPF; Peptide with targeting and/or antimicrobial activity) |  |  |  |  | A. naeslundii; also recorded: F. nucleatum; also recorded: P. gingivalis; also recorded: S. mutans; also recorded: T. denticola | Organism, effect (morphology, biofilm and growth disruption) (microorganisms; S. mutans): S. mutans (I)
PF-668 (chain 1 TNAESMALAFRGRVHMSVNIAGLT; chain 2 TNAESMALAFRGRVHMSVNIAGLT; Peptide with targeting and/or antimicrobial activity) | E. faecalis (D) | MRSA (R) | S. epidermidis (M) | S. pneumoniae (M) | Mycobacteria spp | Organism, effect (morphology, biofilm and growth disruption) (microorganisms; B. subtilis): B. subtilis (A); Organism, effect (morphology, biofilm and growth disruption) (microorganisms; C. albicans): C. albicans (A); Organism, effect (morphology, biofilm and growth disruption) (microorganisms; C. jeikeium): C. jeikeium (D)
VLPFPAIPLSRRRACVAAPRPRSRQRAS [PF-168] |  |  |  |  |  | Organism, effect (microorganisms; MRSA): MRSA (I); Organism, effect (microorganisms; P. aeruginosa): P. aeruginosa (H); Target(s) (bacteria): S. epidermidis and M. luteus and E. coli and C. albicans and MRSA and C. jeikeium and C. jejuni
PF-686 (chain 1 LAVLMGYIGYRGWSGKRHINRQ; chain 2 LAVLMGYIGYRGWSGKRHINRQ; Peptide with targeting and/or antimicrobial activity) | E. faecalis (R) | MRSA (M) | S. epidermidis (H) | S. pneumoniae (A) | M. smegmatis | Organism, effect (morphology, biofilm and growth disruption) (microorganisms; B. subtilis): B. subtilis (I); Organism, effect (morphology, biofilm and growth disruption) (microorganisms; C. albicans): C. albicans (B)
PF-421 (KHCFEITDKTDVV; Peptide with targeting and/or antimicrobial activity) |  |  |  |  |  | Organism, effect (microorganisms; S. pneumoniae): S. pneumoniae (H); Target(s) (microorganisms bound by the targeting peptide) (bacteria): C. jeikeium
PF-613 (ADEFAKL; Peptide with targeting and/or antimicrobial activity) | E. faecalis (A) | MRSA (C) | S. epidermidis (R) |  | C. jeikeium | 
PF-649 (chain 1 CPRYPFVDVGPAGPWRARWRVGS; chain 2 CPRYPFVDVGPAGPWRARWRVGS; Peptide with targeting and/or antimicrobial activity) | E. faecalis (R) |  |  |  | Mycobacteria spp | 
PF-404 (VLYFQATVV; Peptide with targeting and/or antimicrobial activity) |  |  |  |  |  | Organism, effect (microorganisms; MRSA): MRSA (M); Organism, effect (microorganisms; S. epidermidis): S. epidermidis (M); Target(s) (microorganisms bound by the targeting peptide) (bacteria): S. epidermidis; also recorded: E. coli; also recorded: P. aeruginosa; also recorded: E. faecalis; also recorded: C. jeikeium; also recorded: C. jejuni
PF-233 (DANAMARTTIAIVYILALIALTISYSL; Peptide with targeting and/or antimicrobial activity) |  |  |  |  |  | Organism, effect (microorganisms; S. epidermidis): S. epidermidis (C); Target(s) (bacteria): S. epidermidis; also recorded: M. luteus; also recorded: P. aeruginosa; also recorded: A. baumannii
